Source: ChEMBL document CHEMBL4422615, “Novel non-xanthine antagonist of the A2B adenosine receptor: From HTS hit to lead structure” (Eur J Med Chem, 2019)
The source made the active and inactive calls. The calls are words filed in the database; no cut-off is given here.

Tests used:
[1] = Half life in rat at 0.3 mg/kg, iv administered as infusion for 15 mins by HPLC-MS/MS analysis; format: ADME, organism-based; conditions: in vivo
[2] = Dose normalized AUC in dog at 1 mg/kg, po for 15 mins by HPLC-MS/MS analysis; format: ADME, organism-based, Canis lupus familiaris; conditions: in vivo, 0.25 h
Adenosine receptor A1 = target: T1, Adenosine receptor A1 (Mus musculus, UniProt Q60612); assay: Antagonist activity at recombinant mouse A1 adenosine receptor expressed in CHO cells after 3 to 4 hrs by luciferase reporter gene assay; format: cell-based
T1 sequence (Q60612 whole entry): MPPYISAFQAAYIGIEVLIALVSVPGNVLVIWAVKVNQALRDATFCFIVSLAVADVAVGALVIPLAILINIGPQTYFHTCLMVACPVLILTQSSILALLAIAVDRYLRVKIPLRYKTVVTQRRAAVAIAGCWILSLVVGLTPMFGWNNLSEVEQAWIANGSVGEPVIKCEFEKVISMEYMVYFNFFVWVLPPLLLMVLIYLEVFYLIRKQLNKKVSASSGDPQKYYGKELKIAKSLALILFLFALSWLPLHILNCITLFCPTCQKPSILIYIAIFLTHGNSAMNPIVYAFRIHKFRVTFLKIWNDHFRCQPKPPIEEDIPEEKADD

[3] = Partition coefficient, log P of the compound; format: physicochemical; conditions: octanol/water
Mus musculus [4] = assay: Antifibrotic activity in FITC-induced C57BL/6J mouse pulmonary fibrosis model assessed as reduction in IL-6 level in lung tissue homogenate at 100 to 500 mg/kg, bid administered via gavage pretreated for 45 mins before FITC addition until 72 hrs after FITC application by ELISA; format: functional, organism-based
[5] = Dose normalized AUC in mouse at 0.3 mg/kg, iv administered as bolus dose by HPLC-MS/MS analysis; format: ADME, organism-based; conditions: in vivo
[6] = Toxicity in silica-induced C57BL/6J mouse pulmonary fibrosis model assessed as change in body weight at 100 to 500 mg/kg, bid administered via gavage treated from day 1 until day 7 after silica application; format: organism-based; conditions: in vivo, po
Mus musculus [7] = assay: Antifibrotic activity in FITC-induced C57BL/6J mouse pulmonary fibrosis model assessed as reduction in osteopontin level in lung at 100 to 500 mg/kg, bid administered via gavage pretreated for 45 mins before FITC addition until 72 hrs after FITC application by ELISA; format: functional, organism-based
[8] = MRT in dog at 1 mg/kg, po for 15 mins by HPLC-MS/MS analysis; format: ADME, organism-based, Canis lupus familiaris; conditions: in vivo
PXR = target: T2, PXR (Homo sapiens, UniProt O75469); assay: Activation of PXR in human HepG2 cells assessed as induction of CYP3A4 expression at 2 x 10^-9 to 50 x 10^-6 mol/L by luciferase reporter gene assay relative to control; format: ADME, cell-based
T2 sequence (O75469 whole entry): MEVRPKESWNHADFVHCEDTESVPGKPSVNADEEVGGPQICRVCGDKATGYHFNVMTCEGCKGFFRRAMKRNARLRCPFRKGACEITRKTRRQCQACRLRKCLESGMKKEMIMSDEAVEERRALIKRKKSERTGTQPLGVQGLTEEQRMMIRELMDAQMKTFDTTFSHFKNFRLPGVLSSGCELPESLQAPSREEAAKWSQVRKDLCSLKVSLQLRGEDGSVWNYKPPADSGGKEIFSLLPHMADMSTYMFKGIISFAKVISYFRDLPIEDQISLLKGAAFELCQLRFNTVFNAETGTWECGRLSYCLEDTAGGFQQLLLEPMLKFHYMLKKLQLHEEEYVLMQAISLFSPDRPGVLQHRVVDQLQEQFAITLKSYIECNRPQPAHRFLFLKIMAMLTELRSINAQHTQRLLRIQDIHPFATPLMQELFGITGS

Adenosine receptor A3 = target: T3, Adenosine receptor A3 (Homo sapiens, UniProt P0DMS8); assay: Antagonist activity at recombinant human A3 adenosine receptor expressed in CHO cells after 3 to 4 hrs by luciferase reporter gene assay; format: cell-based
T3 sequence (P0DMS8 whole entry): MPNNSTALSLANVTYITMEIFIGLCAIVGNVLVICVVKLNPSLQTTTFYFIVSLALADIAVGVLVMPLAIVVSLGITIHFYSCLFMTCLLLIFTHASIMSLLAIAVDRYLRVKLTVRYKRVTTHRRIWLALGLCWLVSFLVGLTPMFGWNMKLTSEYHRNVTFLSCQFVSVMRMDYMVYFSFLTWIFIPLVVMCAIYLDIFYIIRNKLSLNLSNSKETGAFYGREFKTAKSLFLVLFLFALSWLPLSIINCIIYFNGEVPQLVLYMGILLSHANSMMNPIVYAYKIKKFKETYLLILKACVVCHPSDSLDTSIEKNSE

[9] = Fraction unbound in mouse plasma by equilibrium dialysis method; format: ADME, cell-free
[10] = Fraction unbound in dog plasma by equilibrium dialysis method; format: ADME, cell-free, Canis lupus familiaris
[11] = Oral bioavailability in rat at 1 mg/kg for 15 mins by HPLC-MS/MS analysis; format: ADME, organism-based; conditions: in vivo
[12] = Dose normalized AUC in rat at 1 mg/kg, po for 15 mins by HPLC-MS/MS analysis; format: ADME, organism-based; conditions: in vivo, 0.25 h
Cytochrome P450 2C9 = Cytochrome P450 2C9 (Homo sapiens, UniProt P11712); assay: Inhibition of CYP2C9 in human liver microsomes using diclofenac as substrate after 15 mins in presence of NADPH by LC-MS/MS analysis; format: ADME
Chain of Cytochrome P450 2C9 (P11712 whole entry): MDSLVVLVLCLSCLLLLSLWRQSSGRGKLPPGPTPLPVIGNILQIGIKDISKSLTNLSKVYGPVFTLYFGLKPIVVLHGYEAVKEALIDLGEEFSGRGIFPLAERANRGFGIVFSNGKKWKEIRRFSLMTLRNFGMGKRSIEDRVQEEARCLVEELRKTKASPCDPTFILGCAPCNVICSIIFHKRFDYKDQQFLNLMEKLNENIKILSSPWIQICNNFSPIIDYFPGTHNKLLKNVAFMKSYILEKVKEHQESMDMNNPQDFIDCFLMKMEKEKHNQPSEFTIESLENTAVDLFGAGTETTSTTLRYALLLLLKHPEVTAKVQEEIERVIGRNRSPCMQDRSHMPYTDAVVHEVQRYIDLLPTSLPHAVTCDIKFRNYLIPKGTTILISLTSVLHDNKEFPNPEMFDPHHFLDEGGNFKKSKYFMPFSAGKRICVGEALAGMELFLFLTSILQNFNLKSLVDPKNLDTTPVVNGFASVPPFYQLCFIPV

Cytochrome P450 2D6 = Cytochrome P450 2D6 (Homo sapiens, UniProt P10635); assay: Inhibition of CYP2D6 in human liver microsomes using dextromethorphan as substrate after 15 mins in presence of NADPH by LC-MS/MS analysis; format: ADME
Chain of Cytochrome P450 2D6 (P10635 whole entry): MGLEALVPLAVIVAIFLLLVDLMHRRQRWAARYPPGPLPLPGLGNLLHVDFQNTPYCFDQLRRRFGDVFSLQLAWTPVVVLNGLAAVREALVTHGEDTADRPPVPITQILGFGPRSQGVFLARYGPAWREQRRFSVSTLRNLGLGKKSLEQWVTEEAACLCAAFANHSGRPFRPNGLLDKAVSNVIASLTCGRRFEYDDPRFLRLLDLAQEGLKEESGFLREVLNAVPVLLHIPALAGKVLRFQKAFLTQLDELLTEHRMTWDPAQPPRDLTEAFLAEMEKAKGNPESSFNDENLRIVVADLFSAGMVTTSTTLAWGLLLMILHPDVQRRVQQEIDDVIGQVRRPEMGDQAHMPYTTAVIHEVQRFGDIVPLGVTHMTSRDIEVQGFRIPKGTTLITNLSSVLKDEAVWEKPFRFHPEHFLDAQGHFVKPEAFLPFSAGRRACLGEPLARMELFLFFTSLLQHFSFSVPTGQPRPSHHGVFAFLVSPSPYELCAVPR

[13] = Efflux ratio in human Caco2 cells; format: ADME, cell-based; conditions: Caco-2
Adenosine receptor A2a [14] = target: Adenosine receptor A2a (Rattus norvegicus, UniProt P30543); assay: Antagonist activity at recombinant rat A2A adenosine receptor expressed in CHO cells after 3 to 4 hrs by luciferase reporter gene assay; format: cell-based
Chain of Adenosine receptor A2a (Rattus norvegicus, UniProt P30543) (P30543 whole entry): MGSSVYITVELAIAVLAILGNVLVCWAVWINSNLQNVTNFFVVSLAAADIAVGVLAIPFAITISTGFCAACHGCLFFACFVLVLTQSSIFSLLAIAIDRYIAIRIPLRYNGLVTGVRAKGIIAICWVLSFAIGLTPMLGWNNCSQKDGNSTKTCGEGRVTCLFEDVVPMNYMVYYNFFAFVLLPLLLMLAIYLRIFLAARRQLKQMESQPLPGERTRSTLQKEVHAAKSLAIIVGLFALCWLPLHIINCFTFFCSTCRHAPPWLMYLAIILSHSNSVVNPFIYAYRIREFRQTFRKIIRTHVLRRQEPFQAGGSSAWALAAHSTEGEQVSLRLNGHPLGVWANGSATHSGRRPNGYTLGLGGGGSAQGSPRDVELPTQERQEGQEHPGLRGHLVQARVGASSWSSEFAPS

[15] = Half life in mouse at 1 mg/kg, iv administered as bolus dose by HPLC-MS/MS analysis; format: ADME, organism-based; conditions: in vivo
[16] = Dose normalized AUC in rat at 0.3 mg/kg, iv administered as infusion for 15 mins by HPLC-MS/MS analysis; format: ADME, organism-based; conditions: in vivo, 0.25 h
[17] = Dose normalized Cmax in rat at 1 mg/kg, po for 15 mins by HPLC-MS/MS analysis; format: ADME, organism-based; conditions: in vivo, 0.25 h
[18] = Half life in dog at 0.3 mg/kg, iv administered as infusion for 15 mins by HPLC-MS/MS analysis; format: ADME, organism-based, Canis lupus familiaris; conditions: in vivo
Adenosine receptor A2a [19] = target: Adenosine receptor A2a (Mus musculus, UniProt Q60613); assay: Antagonist activity at recombinant mouse A2A adenosine receptor expressed in CHO cells after 3 to 4 hrs by luciferase reporter gene assay; format: cell-based
Chain of Adenosine receptor A2a (Mus musculus, UniProt Q60613) (Q60613 whole entry): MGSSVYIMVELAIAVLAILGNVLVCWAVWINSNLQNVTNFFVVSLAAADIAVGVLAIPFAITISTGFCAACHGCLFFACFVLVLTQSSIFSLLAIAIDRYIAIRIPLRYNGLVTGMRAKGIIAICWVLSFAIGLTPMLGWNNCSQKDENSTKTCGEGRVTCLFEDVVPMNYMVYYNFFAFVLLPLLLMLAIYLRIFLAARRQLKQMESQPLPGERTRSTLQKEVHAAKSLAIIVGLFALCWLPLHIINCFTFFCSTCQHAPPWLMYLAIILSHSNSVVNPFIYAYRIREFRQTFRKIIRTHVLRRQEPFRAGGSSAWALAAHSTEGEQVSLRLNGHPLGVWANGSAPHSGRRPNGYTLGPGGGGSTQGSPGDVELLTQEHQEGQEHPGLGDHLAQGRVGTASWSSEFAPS

[20] = Dose normalized AUC in mouse at 1 mg/kg, iv administered as bolus dose by HPLC-MS/MS analysis; format: ADME, organism-based; conditions: in vivo

With CCn1c(=O)c2c(C)c(C(=O)N3CCC(O)CC3)sc2n(CCC(F)(F)F)c1=O the half-life [1] was 1.4 h, the AUC/dose [2] was 2 kg·h/L and the IC50 (Adenosine receptor A1) was greater than 6.7 µM. For the same compound, the logP [3] was 1.99, the Activity (Mus musculus [4]) was “Active” and the AUC/dose [5] was 1.6 kg·h/L. For the same compound, the Activity [6] was “Non-Toxic”, the Activity (Mus musculus [7]) was “inactive” and the MRT [8] was 4.4 h. The Emax (PXR) was 16%, the IC50 (Adenosine receptor A3) was greater than 6.7 µM and the fraction unbound [9] was 0.3. For the same compound, the fraction unbound [10] was 0.54, the bioavailability [11] was 88% and the AUC/dose [12] was 0.78 kg·h/L. The IC50 (Cytochrome P450 2C9) was greater than 20 µM, the IC50 (Cytochrome P450 2D6) was greater than 20 µM and the efflux ratio [13] was 0.82. It also gave an IC50 (Adenosine receptor A2a [14]) of 0.75 µM, a half-life [15] of 2.1 h and an AUC/dose [16] of 0.88 kg·h/L. The Cmax/dose [17] was 0.33 kg/L, the half-life [18] was 6.6 h and the IC50 (Adenosine receptor A2a [19]) was 0.47 µM. The AUC/dose [20] was 1 kg·h/L.
